Assay [1] concerns CD86 expression on macrophages. As to the kind of experiment: Flow cytometry of CD86 protein on macrophages. In kind it is cell-based, human. As to conditions: 48 h incubation. As for the experimental part:
The effect of the above-listed compounds on the expression of the TLR4 receptor and the CD86 protein was studied by flow cytometry after 48 h incubation with macrophages. The interaction of bacterial endotoxins with the TLR4 receptor is known to activate the expression of several pro-inflammatory cytokine genes, while the co-stimulatory molecule CD86 plays an important role in […] inflammatory responses. A decrease in the expression of the TLR4 receptor was observed under the action of all tested compounds (Figure 4c,e), the rank order of these TLR4-suppressing effects was as follows: hypaphorine (14%) < PNU 282,987 (21%) < 6ID (31%).
Peripheral blood mononuclear cells (PBMCs) were separated by Ficoll-Paque PLUS density gradient centrifugation. PBMCs were placed in a sterile Petri dish and incubated at 37 °C for 2 h. Unattached cells were then removed by washing with PBS and substituted with fresh complete RPMI 1640 medium. To generate monocyte-derived macrophages (MDMs), 50 ng/mL GM-CSF was added to the isolated monocytes and cultured for 6 days to differentiate them into non-polarized MDMs.
Figure 4 The effects of PNU 282987, hypaphorine, and D-6-iodohypaphorine methyl ester (6ID) on macrophage membrane proteins expression. Cells were treated with these compounds for 48 h and then analyzed by flow cytometry. PNU 282,987 led to an increase in the (a) CD11b and (b) CD11c expression. (c): All tested compounds led to a decrease in TLR4 expression. (d): Macrophages stimulation with hypaphorine and 6ID promoted an increase in CD86 expression. Results obtained in three independent experiments on macrophages from different donors and presented as mean ± SD. One-way ANOVA tests with Tukey post hoc test: * p ˂0.05, ** p ˂ 0.01, **** p < 0.0001 in comparison with untreated cells.
For orientation: Flow cytometry measures light scatter and fluorescence of single cells or particles in a stream.

Assay [2] has as its system myocardial infarction model. More on the design: method as in PMID 35538277. As to conditions: cited from earlier work.
Assay [3] deals with MIA-induced arthritis. As to the kind of experiment: Monoiodoacetate-induced arthritis model, histological study of the knee joint. As to conditions: 15th day, scale 0-5, n = 4. Format: in vivo, female rats. An excerpt:
After the experiment termination and euthanasia of the experimental animals, biomaterials were taken for histological examination. Soft tissues around the right knee joint were excised as much as possible. Femur, tibia, and fibula were cut across in the middle of the diaphysis closer to the corresponding articular surfaces. The joint was fixed in a 10% solution of neutral formalin for seven days, washed in running water and then decalcified in Trilon B for 7–14 days. After satisfactory decalcification of the bone and cartilage tissue, the joint was cut in the sagittal plane. The diaphysis of the tubular bones was shortened to the border of 2–3 mm from the metaepiphyseal cartilage. In this form, the biomaterial was repeatedly washed in running water, dehydrated in alcohols of ascending concentration, and embedded in paraffin. Paraffin sections 5–7 μm thick were stained with hematoxylin and eosin and examined using conventional light microscopy. During histological analysis, the following morphological signs were assessed: inflammatory infiltration of the synovial membrane (synovitis), synovial hyperplasia, destructive changes in the articular cartilage, and destructive changes in bone tissue (if any). The following scale was used to assess the severity of a particular morphological trait: 0 points—within normal limits, 1—minimal severity, 2—weak, 3—medium (moderate), 4—strong, 5—very strong.
Four groups of animals were formed: control and three groups with modelling of inflammation by introducing monoiodoacetate (MIA). Three groups of animals were injected with 3 mg MIA in 50 μL of 0.9% sodium chloride through the patellar ligament into the intra-articular space of the right knee using a 29-G needle. Control rats received an equivalent volume of 0.9% sodium chloride.

For the compound `COC(=O)[C@@H](Cc1c[nH]c2cc(I)ccc12)[N+](C)(C)C` [Compound 1, (D)-6-iodohypaphorine methyl ester], the “increase in the expression of CD86” value in assay [1] was found to be 21%.

Consider `COC(=O)C(Cc1c[nH]c2cc([N+](=O)[O-])ccc12)[N+](C)(C)C` (centres unmarked) [Compound 5, methyl ester of 6-nitrohypaphorine], for which the “effect in myocardial infarction model” value in assay [2] was “significant positive effect”. In assay [3] (0.05 mg/kg intramuscular), the “Destructive Changes in the Distal Epiphyseal Cartilage of the Femur, Max score” value is recorded as 3.0; the “Destructive Changes in the Distal Epiphyseal Cartilage of the Femur, Me (average) score” value was determined as 3.0; the “Destructive Changes in the Distal Epiphyseal Cartilage of the Femur, Min score” value is recorded as 3.0; the “Destructive Changes in the Proximal Epiphyseal Cartilage of the Tibia, Max score” value stood at 4.0. For the same compound, in assay [3] (0.05 mg/kg intramuscular), the “Destructive Changes in the Proximal Epiphyseal Cartilage of the Tibia, Me (average) score” value is 3.5; the “Destructive Changes in the Proximal Epiphyseal Cartilage of the Tibia, Min score” value is 3.0; the “Inflammatory Infiltration of the Synovium, Max score” value amounted to 4.0; the “Inflammatory Infiltration of the Synovium, Me (average) score” value turned out to be 3.75. Also, in assay [3] (0.05 mg/kg intramuscular), the “Inflammatory Infiltration of the Synovium, Min score” value is reported as 3.0; the “Synovial Hyperplasia, Max score” value is 3.0; the “Synovial Hyperplasia, Min score” value was found to be 2.0. The “Synovial Hyperplasia, Me (average) score” value in assay [3] (0.05 mg/kg intramuscular, listed as 6ND) is 2.25. Further, in assay [3] (0.26 mg/kg intramuscular), the “Destructive Changes in the Distal Epiphyseal Cartilage of the Femur, Max score” value is 3.0; the “Destructive Changes in the Distal Epiphyseal Cartilage of the Femur, Me (average) score” value stood at 3.0; the “Destructive Changes in the Distal Epiphyseal Cartilage of the Femur, Min score” value stood at 3.0; the “Destructive Changes in the Proximal Epiphyseal Cartilage of the Tibia, Max score” value was determined as 4.0. In assay [3] (0.26 mg/kg intramuscular), the “Destructive Changes in the Proximal Epiphyseal Cartilage of the Tibia, Me (average) score” value is 3.5; the “Destructive Changes in the Proximal Epiphyseal Cartilage of the Tibia, Min score” value is 3.0; the “Inflammatory Infiltration of the Synovium, Max score” value is on record as 3.0; the “Inflammatory Infiltration of the Synovium, Me (average) score” value is reported as 2.5. In assay [3] (0.26 mg/kg intramuscular), the “Inflammatory Infiltration of the Synovium, Min score” value was 2.0; the “Synovial Hyperplasia, Max score” value came out at 2.0; the “Synovial Hyperplasia, Me (average) score” value stood at 1.5; the “Synovial Hyperplasia, Min score” value was determined as 1.0.

(Values after article PMC10305119, “Analogs of 6-Bromohypaphorine with Increased Agonist Potency for α7 Nicotinic Receptor as Anti-Inflammatory Analgesic Agents” (Marine Drugs, 2023).)
